Publication PMC4449006, “Targeting KRAS Oncogene in Colon Cancer Cells with 7-Carboxylate Indolo[3,2-b]quinoline Tri-Alkylamine Derivatives” (PLoS ONE, 2015)

Experiments:
HCT116 cells = experiment: Hoechst staining and Guava Nexin assay, HCT116; assay type: cell-based, human; conditions: HCT116, 72 h, IC50 concentrations
Method: To further validate the effect of the IQ3A compounds on the induction of apoptosis in HCT116 cells, apoptosis was ascertained by evaluating changes in nuclear morphology by Hoechst staining, and also by the Nexin assay, following 72 h of incubation with IQ3A compounds at the IC50 concentrations. […] The p53 protein plays a central and pivotal role in human cancers, having a potent tumor suppressive activity via pleiotropic mechanisms. Therefore, the steady-state levels of p53 protein were evaluated by immunoblotting, following 72 h of incubation with IQ3A compounds at the IC50 concentrations, to ascertain their involvement on the mechanism of apoptosis elicited by IQ3A. […] In SW620 cells, no significant increase in p53 steady-state expression was detected, possibly due to the mutant status of p53 (Fig 5A, middle panel). […]
Fig 4 Exposure to IQ3A compounds increases apoptosis in HCT116 cells. […] Results are expressed as the mean percentage (%) of early (LR quadrant) and late (UR quadrant) apoptotic cells.
The Nexin Assay distinguishes viable, early and late apoptotic cells based on the externalization of phosphatidylserine to the cell surface, where Annexin V can readily bind them. […]

KRAS21 G-quadruplex DNA = experiment: FRET melting assay, KRAS G-quadruplex DNA; assay type: binding; conditions: standard deviation < 0.2°C
Method: (§1) The capacity of compounds 1a-d, 2a-d and the standard G4 ligand TMPyP4 (Fig 1) to bind and stabilize KRAS [26] and HSP90A [27] G4 DNA structures as well as duplex DNA (T-loop) was evaluated by a Fluorescence Resonance Energy Transfer (FRET) melting assay. […] It was observed that the basicity of side chains correlates positively with thermal G4 stabilization of all DNA sequences up to an optimal pKa ~ 8.0–9.0 (Fig 2). Heterocyclic amines at the end of alkyl side chain (1b and 2b) appear to improve binding to G4s and complex stabilization compared to the di-ethylamine group (1a and 2a), which cannot be explained by differences in basicity between terminal groups. […] However, this was not observed for the isomeric pair 1a / 2a.
(§2) All oligonucleotides were purchased from Eurofins MWG Synthesis GmbH, Germany. The labeled oligonucleotides used in the FRET assays had attached the donor fluorophore FAM (6-carboxyfluorescein) and the acceptor fluorophore TAMRA (6-carboxytetramethylrhodamine): KRAS21R (5’-FAM-[…]-TAMRA-3’); HSP90A (5’- [FAM]-[…]-[TAMRA]-3’); T-Loop (5’-FAM-[…]-TAMRA-3’). Each oligonucleotide was initially diluted to a storage solution at 100 μM in nuclease free water (not DEPC-treated), purchased from Ambion Applied Biosystems UK.
(§3) The ability of IQ3A and TMPyP4 to stabilize G-quadruplex and duplex DNA sequences was investigated using a Fluorescence Resonance Energy Transfer (FRET) assay. Stock solution of the oligonucleotides sequences at 20 μM and subsequent dilutions were obtained from storage solutions diluting with K-cacodylate buffer pH = 7.4, containing 60 mM K^+ (10 mM potassium cacodylate, 50 mM KCl). The FRET probe sequences were diluted from stock to the correct concentration (0.4 μM) and then annealed by heating to 95°C for 10 min, followed by cooling to RT. Test compounds were prepared as 1 mM in 10% DMSO and 10% 1mM HCl in HPLC-grade water. The rest of the dilutions were performed using FRET buffer. Annealed DNA (50 μL) and compound solution (50 μL) were distributed across 96-well RT-PCR plates (BioRad; MJ Research, Waltham, MA, USA). Relevant controls were also performed to check for interference with the assay. Fluorescence readings were made on a DNA Engine Opticon (MJ Research) with excitation at 450–495 nm and detection at 515–545 nm, taken at intervals of 0.5°C in the range 30–100°C, with a constant temperature being maintained for 30 s prior to each reading to ensure a stable value. Experiments were performed in triplicate. Final analysis of the data was carried out with GraphPad Prism 5.0 software (GraphPad Software, Inc). The advanced curve-fitting function in GraphPad Prism was used for calculation of ΔT m values and associated standard deviations.

HSP90A G-quadruplex DNA = experiment: FRET melting assay, HSP90A G-quadruplex DNA; assay type: binding; conditions: standard deviation < 0.2°C
Method: as §1, §2, §3

SMILES: CCN(CC)CCOC(=O)c1ccc2c(c1)c1nc3ccccc3c(OCCN(CC)CC)c1n2CCN(CC)CC [1a]
- induction of apoptosis (HCT116 cells): marked increase in apoptosis compared to vehicle
- ΔTm (°C) KRAS21 1 μM (KRAS21 G-quadruplex DNA; 1 μM compound): 8 °C
- ΔTm (°C) KRAS21 2 μM (KRAS21 G-quadruplex DNA; 2 μM compound): 12 °C
- ΔTm (°C) HSP90A 1 μM (HSP90A G-quadruplex DNA; 1 μM compound): 14 °C
- ΔTm (°C) HSP90A 2 μM (HSP90A G-quadruplex DNA; 2 μM compound): 20 °C
